According to patent US6552080B1, “Fungicidal compounds having a fluorovinyl-or fluoropropenyl-oxyphenyloxime moiety and process for the preparation thereof” (Korea Research Institute of Chemical Technology, priority 1999, dated 2003):
Like-named read-outs stand apart in the source and are kept apart here.

Columns and labels:
Puccinia recondita = assay: Fungicidal activity against Wheat Leaf Rust (WLR) disease; type: in vivo; conditions: Wheat Leaf Rust
Botrytis cinerae = assay: Fungicidal activity against Cucumber Gray Mold Rot (CGM) disease; type: in vivo; conditions: Cucumber Gray Mold Rot; concentration 50 ppm
Procedure: Botrytis cinerae, which was isolated from cucumber infected thereby, was inoculated on a PDA agar medium and cultured under a 12L/12D cycle at 25° C. for 15 days to form spore. The spores were scraped, filtered through a gauze and then suspended in potato dextrose liquid medium at a concentration of 1×10^6 spore/ml. The spore suspension was sprayed on a cucumber plant having one leaf. The cucumber plant was held in a humidified room at 20° C. for 3 days. L.A. on a leaf was measured to calculate an C.V.

Phytophthora infestans = type: in vivo; conditions: Tomato Late Blight
Erysiphae graminis = assay: Fungicidal activity against Barley Powdery Mildew (BPM) disease; type: in vivo; conditions: Barley Powdery Mildew
[1] = system: Pyricularia oryzae Carvara KA301; type: in vivo; conditions: Rice Blast
Rhizoctonia solani AG-1 = assay: Fungicidal activity against Rice Sheath Blight (RSB) disease; conditions: Rice Sheath Blight
Procedure: To examine fungicidal activity of the compounds of the present invention, each of the compounds listed in Table 3 and 4 was dissolved in 10% acetone to a concentration of 250 ppm, and Tween-20 was added thereto to a concentration of 250 or 500 ppm. 50 ml of the resulting solution was sprayed on leaves of a host plant. The plant was kept at room temperature for 24 hours to let the solvent evaporate, and then, a pathogenic fungus was inoculated thereonto. The plant was held in a humidity chamber for 24 hours, transferred to an plant growth room kept at 20 to 27° C. and a relative humidity of 60 to 80% and kept to induce disease. […] This procedure was repeated twice for each test. 10% Acetone solution containing 250 ppm of Tween-20 was used as a control.
The fungicidal activity of the compound of the present invention is repressed by a control value (C.V.) calculated as; [formula]
Rhizoctonia solani AG-1 was cultured on a PDA medium (potato 200 g, dextrose 20 g, agar 20 g and distilled water 1 ? for 3 days and the agar disc(diameter 0.6 cm) was inoculated and cultured on sterilized wheat bran medium in a 1 L bottle at 26 to 28° C. for 7 days. A mycelial mass was ground using a homogenizer, inoculated uniformly on soil of a pot wherein a Nakdong rice plant having 2 or 3 leaves and an height of 5 cm grew, and kept in humidity polyvinyl chamber for 5 days to induce RSB. L.A. on a leaf sheath was measured to calculate an C.V.

SMILES	WLR (Fungicidal Activities, C.V.) (Puccinia recondita; concentration 2 ppm)	WLR (Fungicidal Activities, C.V.) (Puccinia recondita; concentration 10 ppm)	WLR (Fungicidal Activities, C.V.) (Puccinia recondita; concentration 50 ppm)	CGM (Fungicidal Activities, C.V.) (Botrytis cinerae)	TLB (Fungicidal Activities, C.V.) (Phytophthora infestans; concentration 50 ppm)	BPM (Fungicidal Activities, C.V.) (Erysiphae graminis; concentration 2 ppm)	BPM (Fungicidal Activities, C.V.) (Erysiphae graminis; concentration 10 ppm)	BPM (Fungicidal Activities, C.V.) (Erysiphae graminis; concentration 50 ppm)	RCV (Fungicidal Activities, C.V.) ([1]; concentration 2 ppm)	RCV (Fungicidal Activities, C.V.) ([1]; concentration 10 ppm)	RCV (Fungicidal Activities, C.V.) ([1]; concentration 50 ppm)	RSB (Fungicidal Activities, C.V.) (Rhizoctonia solani AG-1; concentration 50 ppm)	RSB (Fungicidal Activities, C.V.) (Rhizoctonia solani AG-1; concentration 2 ppm)	RSB (Fungicidal Activities, C.V.) (Rhizoctonia solani AG-1; concentration 10 ppm)	TLB (Fungicidal Activities, C.V.) (Phytophthora infestans; concentration 2 ppm)
CO/C=C(/C(=O)OC)c1ccccc1CON=Cc1cccc(OC(F)=Cc2ccccc2)c1 [Compound 1]	96%	100%	100%	69%	12%	99%	100%	100%	71%	86%	100%	65%			
COC=C(C(=O)OC)c1ccccc1CON=Cc1cccc(OC(F)=Cc2cccc(C)c2)c1 [Compound 2]	97%	100%	100%	17%	85%	98%	99%	100%	33%	86%	93%	60%			
COC=C(C(=O)OC)c1ccccc1CON=Cc1cccc(OC(F)=Cc2ccc(C)cc2)c1 [Compound 3]	96%	98%	100%	46%	84%	86%	99%	100%	0%	80%	100%	60%			
COC=C(C(=O)OC)c1ccccc1CON=Cc1cccc(OC(F)=Cc2cc(C)cc(C)c2)c1 [Compound 5]	96%	100%	100%	17%	28%	98%	100%	100%			41%	55%			
CCc1ccc(C=C(F)Oc2cccc(C=NOCc3ccccc3C(=COC)C(=O)OC)c2)cc1 [Compound 6]	98%	100%	100%	44%	33%	97%	99%	100%	8%	58%	99%	75%			
COC=C(C(=O)OC)c1ccccc1CON=Cc1cccc(OC(F)=Cc2ccc(OC)cc2)c1 [Compound 9]	95%	98%	100%	53%	12%	55%	99%	100%	8%	83%	100%	50%			
COC=C(C(=O)OC)c1ccccc1CON=Cc1cccc(OC(F)=Cc2cccc(F)c2)c1 [Compound 11]	97%	100%	100%	17%	85%	98%	99%	100%	33%	86%	100%	40%			
COC=C(C(=O)OC)c1ccccc1CON=Cc1cccc(OC(F)=Cc2ccc(F)cc2)c1 [Compound 12]	100%	100%	100%	52%	83%	98%	100%	100%	33%	93%	98%	70%			
COC=C(C(=O)OC)c1ccccc1CON=Cc1cccc(OC(F)=Cc2cccc(Cl)c2)c1 [Compound 13]	99%	100%	100%	36%	46%	99%	100%	100%	41%	86%	93%	70%			
COC=C(C(=O)OC)c1ccccc1CON=Cc1cccc(OC(F)=Cc2ccc(Cl)cc2)c1 [Compound 14]	96%	99%	100%	7%	12%	99%	100%	100%	58%	86%	100%	75%			
CON=C(C(=O)OC)c1ccccc1CON=Cc1cccc(OC(F)=Cc2ccccc2)c1 [Compound 24]	95%	97%	99%	50%	33%	95%	100%	100%	28%	88%	97%	95%	44%	72%	
CON=C(C(=O)OC)c1ccccc1CON=Cc1cccc(OC(F)=Cc2ccc(C)cc2)c1 [Compound 25]	95%		100%	9%	99%	93%		100%	66%		98%	40%	15%		75%
CON=C(C(=O)OC)c1ccccc1CON=Cc1cccc(OC(F)=Cc2ccc(OC)cc2)c1 [Compound 26]			93%	77%	90%			100%			95%	77%			
CON=C(C(=O)OC)c1ccccc1CON=Cc1cccc(OC(F)=Cc2ccc(F)cc2)c1 [Compound 27]			86%	0%	69%			91%			100%	25%			
CON=C(C(=O)OC)c1ccccc1CON=Cc1cccc(OC(F)=Cc2ccc(Cl)cc2)c1 [Compound 28]	97%		100%	9%	38%	86%		95%	66%		99%	50%	0%		50%
CON=C(C(=O)OC)c1ccccc1CON=Cc1cccc(OC(F)=Cc2ccc3c(c2)OCO3)c1 [Compound 29]	96%		88%	0%	84%	41%		80%	93%		100%	35%	20%		78%
CNC(=O)C(=NOC)c1ccccc1CON=Cc1cccc(OC(F)=Cc2cccc(C)c2)c1 [Compound 31]	83%		100%	25%	8%	8%		100%	97%		100%	52%			
